{"source": "paper PMC5963591", "about": "“Bitopic Binding Mode of an M1 Muscarinic Acetylcholine Receptor Agonist Associated with Adverse Clinical Trial Outcomes” (Molecular Pharmacology, 2018)", "key": {"[1]": {"biological_target": "T1, M4 mAChR (Homo sapiens, UniProt P08173)", "T1 construct": "expressed in transfected cells; host or cells: CHO", "test": "ERK1/2 phosphorylation, CHO cells, M4", "format": "cell-based"}, "[2]": {"biological_target": "T2, human M1 mAChR (Homo sapiens, UniProt P11229)", "T2 sequence (P11229 1-460)": "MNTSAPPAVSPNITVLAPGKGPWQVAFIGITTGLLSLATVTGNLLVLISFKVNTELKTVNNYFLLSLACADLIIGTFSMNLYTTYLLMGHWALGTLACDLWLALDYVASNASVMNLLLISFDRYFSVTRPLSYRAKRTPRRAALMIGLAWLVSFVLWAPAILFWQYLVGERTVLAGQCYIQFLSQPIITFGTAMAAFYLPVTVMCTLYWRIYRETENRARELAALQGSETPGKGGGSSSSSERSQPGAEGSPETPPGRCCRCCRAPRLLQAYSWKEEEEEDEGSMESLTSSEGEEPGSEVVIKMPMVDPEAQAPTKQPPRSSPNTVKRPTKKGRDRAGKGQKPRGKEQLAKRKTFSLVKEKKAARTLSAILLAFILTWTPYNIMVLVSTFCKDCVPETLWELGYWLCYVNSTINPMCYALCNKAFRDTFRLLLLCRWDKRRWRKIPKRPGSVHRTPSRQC", "test": "Kinetic [3H]-NMS binding (dissociation) in membranes", "set-up": "expressed in transfected cells; host or cells: CHO Flp-In", "settings": "compound 10 μM plus atropine 10 μM", "procedure": "Reactions were terminated by rapid filtration onto GF/B filter paper (Whatman, Maidstone, UK) and three washes with 3 ml ice-cold 0.9% NaCl using a Brandel harvester (M-24TI; Brandel, Fort Lauderdale, FL). Membrane bound radioactivity was determined by liquid scintillation (Ultima Gold; PerkinElmer) counting."}, "[3]": {"test_system": "C57Bl/6J mice", "test": "Contextual fear conditioning, scopolamine-induced deficit", "format": "in vivo, mouse", "settings": "escalating i.p. doses with scopolamine […]", "procedure": "C57Bl/6J male mice (aged 8–12 weeks) were acclimatized to the behavioral testing suite at least 2 hours prior to the test. […] Mice were placed in the conditioning chamber (ANY-maze Fear Conditioning System; Stoelting, Dublin, Ireland); after a 2-minute adaptation period, they received three tone/foot shock pairings where the foot shock (unconditioned stimulus; 2 seconds; 0.4 mA) always co-terminated with a tone (conditioned stimulus; 2.8 kH; 85 dB; 30 seconds). The conditioned stimulus–unconditioned stimulus pairings were separated by 1-minute intervals. After the mice completed training, they remained in the conditioning chamber for 1 minute and were then returned to their home cages. The next day, the mice were placed back in the conditioning chamber, and time spent immobile was recorded for 3 minutes to assess context-dependent learning. Data were analyzed using ANY-maze software (Stoelting)."}, "[4]": {"biological_target": "T3, M5 mAChR (Homo sapiens, UniProt P08912)", "T3 construct": "expressed in transfected cells; host or cells: CHO", "test": "ERK1/2 phosphorylation, CHO cells, M5", "format": "cell-based"}, "[5]": {"biological_target": "T2, human M1 mAChR", "test": "IP-One (IP1) accumulation assay, CHO Flp-In human M1 cells", "format": "cell-based", "set-up": "expressed in transfected cells; host or cells: CHO Flp-In", "procedure": "Stimulation of IP accumulation was determined using the Cisbio IP-One Gq assay kit per the manufacturer’s instructions. […] CHO Flp-In cells stably expressing the human M1 mAChR were grown to confluence in T75 cell culture flasks at 37°C. Cells were washed with warm phosphate-buffered saline and detached using phosphate-buffered saline with 0.1 M EDTA. Detached cells were centrifuged at 1000g and the cells were resuspended in stimulation buffer.\nAll IP-One stimulations were terminated by the addition of 3 μl/well IP1-d2 solution, followed by 3 μl/well anti–IP1-cryptate solution and incubation for 1 hour at room temperature with shaking.\nFunctional concentration-response curves were fitted according to a four-parameter logistic equation (to determine minimum and maximum asymptotes, LogEC50, and slope; GraphPad Prism 6). […] In the absence of antagonist ([B] = 0), this equation becomes the standard four-parameter logistic equation for fitting agonist concentration-response data."}, "[6]": {"biological_target": "T4, humanized M1 DREADD (Homo sapiens, UniProt P11229, A196G/Y106C)", "T4 construct": "expressed in transfected cells; host or cells: CHO Flp-In", "T4 sequence (P11229 whole entry Y106C/A196G)": "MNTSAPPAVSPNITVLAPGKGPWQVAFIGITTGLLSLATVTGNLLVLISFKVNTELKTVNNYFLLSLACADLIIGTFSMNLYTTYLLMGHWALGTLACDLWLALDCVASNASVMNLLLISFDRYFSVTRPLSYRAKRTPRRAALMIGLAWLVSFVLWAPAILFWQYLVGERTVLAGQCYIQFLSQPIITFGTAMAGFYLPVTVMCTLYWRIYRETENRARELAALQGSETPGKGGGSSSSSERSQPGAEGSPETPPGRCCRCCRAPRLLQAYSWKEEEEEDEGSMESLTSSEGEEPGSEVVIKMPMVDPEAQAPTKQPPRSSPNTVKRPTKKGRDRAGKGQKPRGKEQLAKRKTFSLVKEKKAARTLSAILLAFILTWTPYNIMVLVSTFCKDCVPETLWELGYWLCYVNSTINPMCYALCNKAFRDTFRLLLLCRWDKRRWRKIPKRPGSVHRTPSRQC", "test": "Equilibrium [3H]-NMS binding, CHO Flp-In cell monolayers, M1 DREADD", "procedure": "Prior to the experiment, cells were washed with 100 μl phosphate-buffered saline. […] Binding was terminated by rapid aspiration followed by two washes with 200 μl ice-cold 0.9% NaCl. Bound radioactivity was determined by liquid scintillation (Ultima Gold; PerkinElmer, Boston, MA) counting. Nonspecific binding was determined in the presence of 10 μM atropine.\nInhibition binding data were curve-fit using GraphPad Prism 6 to derive the potency (IC50) of the test compound. The equilibrium dissociation constant (KI) of the test compound was then calculated with the Cheng–Prusoff equation: KI = IC50/[1 + ([L]/KD)] using the KD value derived separately from saturation binding studies."}}}
{"smiles": "Cc1cc(F)c2[nH]c(=O)n(C3CCN(C4CCOCC4)CC3)c2c1", "note": "[GSK1034702, 7-fluoro-5-methyl-3-[1-(oxan-4-yl)piperidin-4-yl]-1H-benzimidazol-2-one]", "values": [{"measurement": "functional activity in ERK1/2 phosphorylation", "setting": "[1]", "value": "partial agonist activity"}, {"measurement": "effect on the [^3H]-NMS dissociation rate", "setting": "[2]", "value": "no effect"}, {"measurement": "shape of the dose response on learning and memory", "setting": "[3]", "value": "bell shaped"}, {"measurement": "functional activity in ERK1/2 phosphorylation", "setting": "[4]", "value": "partial agonist activity"}, {"measurement": "Emax", "setting": "[5]; % of the maximal response elicited by ACh, read-out: IP1 accumulation, maximal response relative to ACh", "value": "~90", "unit": "%"}, {"measurement": "IP1 Emax", "setting": "[5]; CHO Flp-In human M1 cells", "value": "90.1 ± 2.9"}, {"measurement": "EC50", "setting": "[5]; CHO Flp-In human M1 cells, read-out: IP1 pEC50 (converted)", "value": 79.4, "unit": "nM"}, {"measurement": "IP1 Accumulation ΔLog10(τ/KA)", "setting": "[5]; normalized to reference ligand ACh", "value": "0.3 ± 0.2"}, {"measurement": "IP1 Accumulation Log10(τ/KA)", "setting": "[5]; transduction coefficient, wild-type M1 mAChR", "value": "7.4 ± 0.2"}, {"measurement": "Ki", "setting": "[6]", "value": 1000, "unit": "nM"}]}
